Data set [1] addresses human 11β-hydroxysteroid dehydrogenase type 1 (11β-HSD1). Also noted: method as in PMID 21212546. To be noted: cited from earlier work.
Data set [2] addresses yeast α-glucosidase enzyme. Kind of data set: in vitro α-glucosidase inhibition (PNPG substrate). The data set is classed as biochemical, Saccharomyces cerevisiae. To be noted: for IC50: PNPG substrate.
Description: α-Glucosidase inhibitions were determined following a modified spectroscopic method [87]. A solution of α-glucosidase (obtained from Saccharomyces cerevisiae (Sigma-Aldrich, Munich, Germany)) was prepared in phosphate buffer (pH 6.8, 100 mM). Wells of the 96-well microliter plates were filled with test sample solutions (12.5 μL) prepared in DMSO. After this, enzyme (0.5 U/mL, 40 μL) and then phosphate buffer (100 mM, 120 μL) were also mixed with the test sample solutions. Incubation at 37 °C for 5 min and then addition of 40 μL of the substrate, p-nitrophenyl-α-D-glucopyranoside (PNPG) (5 nM, Sigma-Aldrich, Munich, Germany), was performed. Mixtures were again incubated for 30 min, and absorbance was measured at 405 nm and 37 °C for the released 4-nitrophenol in each mixture. […] Each experiment was carried out thrice, and percentage inhibitions were determined with the help of following expression, followed by the determination of IC50 values. % Inhibition = [(Acontrol − Asample)/Acontrol] × 100 where A is absorbance.
For data set [3], the target named is T1, Aspergillus oryzae α-amylase (Aspergillus oryzae, UniProt P0C1B3).
T1 construct: purchased Sigma-Aldrich, Munich, Germany
Kind of data set: in vitro α-amylase inhibition (starch substrate, DNSA). The class given is biochemical.
Description: A total of 40 µL of each test sample was pipetted out in 96-well microliter plates. This was mixed with 40 µL of Aspergillus oryzae α-amylase (Sigma-Aldrich, Munich, Germany) solution (prepared in Na2SO4 buffer (0.02 M, pH = 6.9)). Incubation of solutions was executed at 37 °C for 10 min. After incubation, 40 µL of starch solution prepared in 1% DMSO was added into each well as a substrate and placed at 25 °C for 10 min. After this, 100 µL of 3,5-dinitrosalicylic acid (DNSA) was added and incubated for 5 min in boiling water. After cooling and dilution of mixtures with distilled water (400 μL), the absorbance was recorded at 540 nm wavelength [91] and 37 °C temperature with the help of a microplate reader. […] Each experiment was carried out thrice, and percentage inhibitions were determined with the help of following expression, followed by the determination of IC50 values. % Inhibition = [(Acontrol − Asample)/Acontrol] × 100 where A is absorbance.

Data set [4] deals with severe acute respiratory syndrome coronavirus 2 (SARS-CoV-2). Also noted: method as in PMID 33160024. To be noted: cited from earlier work.
Data set [5] deals with α-glucosidase. Also noted: method as in PMID 32024621. To be noted: read-out: α-glucosidase IC50 (literature); cited from earlier work.
Data set [6] has as its target α-glucosidase. Description: enzyme inhibition kinetics (Lineweaver–Burk), α-glucosidase. The class given is biochemical, Saccharomyces cerevisiae. Particulars: secondary plots; PNPG 1–9 mM; read-out: Ki (inhibition constant), α-glucosidase. The text has this:
(§1) The pattern of the Lineweaver–Burk plot can visualize the type of inhibition, as shown in Figure 6A−F. […] Secondary plots were drawn to determine the value of the inhibition constant Ki and the dissociation constant Ki’. Smaller Ki implies higher enzyme inhibition, implying the possibility of an allosteric binding site in the enzyme, to which synthetic drugs could bind.
(§2) The Lineweaver–Burk equation was used to determine the type of inhibition. α-Glucosidase and α-amylase activities were studied in the absence and presence of various sample concentrations (0.1 mM, 0.25 mM, 0.5 mM, 0.75 mM and 1.0 mM). For α-glucosidase inhibition kinetics, PNPG was used as a substrate, with different concentrations (1 mM, 3 mM, 5 mM, 7 mM and 9 mM). In α-amylase inhibition kinetics, various amounts of starch solution (0.25–2%) were tested. All experiments were carried out in triplicate, and the outcomes were written as mean ± S.D.

For data set [7], the target named is T2, α-amylase (Aspergillus oryzae, UniProt P0C1B3).
T2 construct: purchased Sigma-Aldrich, Munich, Germany
Description: enzyme inhibition kinetics (Lineweaver–Burk), α-amylase. The data set is classed as biochemical. To be noted: secondary plots; starch 0.25–2%; read-out: Ki (inhibition constant), α-amylase.
Text: as §1, §2

In data set [8] the target is aldose reductase. Also noted: method as in PMID 22036211. Particulars: cited from earlier work.

Here are results for 19 compounds from paper PMC8777765, “Identification of Cyclic Sulfonamides with an N-Arylacetamide Group as α-Glucosidase and α-Amylase Inhibitors: Biological Evaluation and Molecular Modeling” (Pharmaceuticals, 2022).

As usually defined, the IC50 is the concentration needed to halve the response being measured. For the compound `O=C(CN1C(C(=O)Nc2ccccc2)=C(O)c2ccccc2S1(=O)=O)Nc1cccc(C(F)(F)F)c1` [Compound 3], in [1], the IC50 was 0.041 µM.
For orientation: melting point means the temperature of the solid-liquid transition. Compound `COc1cccc(C(=O)C2=C(O)c3ccccc3S(=O)(=O)N2CC(=O)Nc2cccc(C)c2)c1` [Compound 12k, 2-(4-Hydroxy-3-(3-methoxybenzoyl)-1,1-dioxido-2H-benzo[e][1,2]thiazin-2-yl)-N-(m-tolyl)acetamide] registered a melting point of 150 to 151 °C. In data set [2], half-maximal inhibition (IC50) was put at 30.4 µM. This compound also registered an IC50 in data set [3] of 67.2 µM.
For the compound `O=C(CN1C(C(=O)Nc2ccc(F)c(Cl)c2)=C(O)c2ccc(F)cc2S1(=O)=O)Nc1ccc(C(F)(F)F)cc1` [Compound 4], in data set [4], the IC50 is 0.88 µM.
Take `C/C(=N\NC(=O)C1=C(O)c2ccccc2S(=O)(=O)N1C)c1ccccc1` [Compound 7]: the IC50 in data set [5] is 4.2 µM.
In the case of `C/C(=N\NC(=O)C1=C(O)c2ccccc2S(=O)(=O)N1)c1ccccc1` [Compound 6], the IC50 in [5] is 3.9 µM.
Consider `COc1cccc(C(=O)C2=C(O)c3ccccc3S(=O)(=O)N2CC(=O)Nc2cccc(Br)c2)c1` [Compound 12h, N-(3-Bromophenyl)-2-(4-hydroxy-3-(3-methoxybenzoyl)-1,1-dioxido-2H-benzo[e][1,2]thiazin-2-yl)acetamide], for which the melting point lay within 132 to 133 °C. This compound also yielded an IC50 in [2] of 86.2 µM. The IC50 in data set [3] came to 110 µM.
Consider `COc1cccc(C(=O)C2=C(O)c3ccccc3S(=O)(=O)N2CC(=O)Nc2cccc([N+](=O)[O-])c2)c1` [Compound 12e, 2-(4-Hydroxy-3-(3-methoxybenzoyl)-1,1-dioxido-2H-benzo[e][1,2]thiazin-2-yl)-N-(3-nitrophenyl)acetamide], for which the melting point is 189 to 190 °C. In data set [2], the “α-glucosidase inhibition (in words)” value is reported as “failed to show any remarkable inhibition”. The IC50 in [3] was determined as 37.5 µM.
For orientation: Ki means the dissociation constant of the complex between target and ligand, obtained from inhibition or displacement. Regarding `COc1cccc(C(=O)C2=C(O)c3ccccc3S(=O)(=O)N2CC(=O)Nc2ccc(Br)cc2)c1` [Compound 12i, N-(4-Bromophenyl)-2-(4-hydroxy-3-(3-methoxybenzoyl)-1,1-dioxido-2H-benzo[e][1,2]thiazin-2-yl)acetamide], the figures for the IC50 in [2] and in data set [3] were 25.9 µM and 7.52 µM, respectively. In addition, the Ki in data set [6] came to 100 µM; in [7] it was 70.4 µM.
For `COc1cccc(C(=O)C2=C(O)c3ccccc3S(=O)(=O)N2CC(=O)Nc2ccccc2Cl)c1` [Compound 12a, N-(2-Chlorophenyl)-2-(4-hydroxy-3-(3-methoxybenzoyl)-1,1-dioxido-2H-benzo[e][1,2]thiazin-2-yl)acetamide], the melting point was 186 to 187 °C. For the same compound, half-maximal inhibition in data set [2] (IC50) was put at 46.2 µM. The compound further registered an IC50 in data set [3] of 13.3 µM.
With `COc1cccc(C(=O)C2=C(O)c3ccccc3S(=O)(=O)N2CC(=O)Nc2ccccc2C)c1` [Compound 12j, 2-(4-Hydroxy-3-(3-methoxybenzoyl)-1,1-dioxido-2H-benzo[e][1,2]thiazin-2-yl)-N-(o-tolyl)acetamide], the melting point was 166 °C. Moreover, the “α-glucosidase inhibition (in words)” value in [2] is recorded as “failed to show any remarkable inhibition”.
As to `COc1cccc(C(=O)C2=C(O)c3ccccc3S(=O)(=O)N2CC(=O)Nc2ccccc2Br)c1` [Compound 12g, N-(2-Bromophenyl)-2-(4-hydroxy-3-(3-methoxybenzoyl)-1,1-dioxido-2H-benzo[e][1,2]thiazin-2-yl)acetamide], the melting point was in the range of 169 to 171 °C. This compound also showed an IC50 in data set [2] of 35.1 µM. In [3], this compound displayed an IC50 of 11.7 µM.
The corresponding values for `COc1cccc(C(=O)C2=C(O)c3ccccc3S(=O)(=O)N2CC(=O)Nc2ccc(Cl)cc2)c1` [Compound 12c, N-(4-Chlorophenyl)-2-(4-hydroxy-3-(3-methoxybenzoyl)-1,1-dioxido-2H-benzo[e][1,2]thiazin-2-yl)acetamide] are 146 to 147 °C, 40.8 µM and 125 µM.
For the compound `COc1cccc(C(=O)C2=C(O)c3ccccc3S(=O)(=O)N2)c1` [Compound 11, (4-Hydroxy-1,1-dioxido-2H-benzo[e][1,2]thiazin-3-yl)(3-methoxyphenyl)methanone], the “α-glucosidase inhibition (in words)” value in [2] is recorded as “failed to show any remarkable inhibition”. This compound also came in with an IC50 in data set [3] of 147 µM.
`COc1ccc(NC(=O)CN2C(C(=O)c3cccc(OC)c3)=C(O)c3ccccc3S2(=O)=O)cc1` [Compound 12m, 2-(4-Hydroxy-3-(3-methoxybenzoyl)-1,1-dioxido-2H-benzo[e][1,2]thiazin-2-yl)-N-(4-methoxyphenyl)acetamide] came in with a melting point of 201 to 202 °C. For the same compound, in data set [2], the “α-glucosidase inhibition (in words)” value is “failed to show any remarkable inhibition”. Further, it took 122 µM to reach half-maximal inhibition in data set [3] (IC50).
Take `COc1cccc(C(=O)C2=C(O)c3ccccc3S(=O)(=O)N2CC(=O)Nc2cccc(Cl)c2)c1` [Compound 12b, N-(3-Chlorophenyl)-2-(4-hydroxy-3-(3-methoxybenzoyl)-1,1-dioxido-2H-benzo[e][1,2]thiazin-2-yl)acetamide]: the “α-glucosidase inhibition (in words)” value in [2] is “failed to show any remarkable inhibition”.
Regarding `COc1cccc(C(=O)C2=C(O)c3ccccc3S(=O)(=O)N2CC(=O)Nc2ccccc2[N+](=O)[O-])c1` [Compound 12d, 2-(4-Hydroxy-3-(3-methoxybenzoyl)-1,1-dioxido-2H-benzo[e][1,2]thiazin-2-yl)-N-(2-nitrophenyl)acetamide], in data set [2], the “α-glucosidase inhibition (in words)” value was “failed to show any remarkable inhibition” and the IC50 was 102 µM. In [3], 15.1 µM corresponded to half-maximal inhibition (IC50).
On to `COc1cccc(C(=O)C2=C(O)c3ccccc3S(=O)(=O)N2CC(=O)Nc2ccccc2OC)c1` [Compound 12l, 2-(4-Hydroxy-3-(3-methoxybenzoyl)-1,1-dioxido-2H-benzo[e][1,2]thiazin-2-yl)-N-(2-methoxyphenyl)acetamide], for which, in [2], the “α-glucosidase inhibition (in words)” value was “failed to show any remarkable inhibition” and the IC50 was 110 µM.
In turn, `COc1cccc(C(=O)C2=C(O)c3ccccc3S(=O)(=O)N2CC(=O)Nc2ccc([N+](=O)[O-])cc2)c1` [Compound 12f, 2-(4-Hydroxy-3-(3-methoxybenzoyl)-1,1-dioxido-2H-benzo[e][1,2]thiazin-2-yl)-N-(4-nitrophenyl)acetamide] gave a melting point of 176 to 177 °C. The compound also returned an IC50 in data set [2] of 97 µM. This compound showed an IC50 in data set [3] of 29 µM.
As for `O=C(O)/C=C1\CN(Cc2ccc(Br)cc2F)S(=O)(=O)c2ccccc21` [Compound 5], the IC50 in [8] was 0.11 µM.
